Measurements taken from publication PMC9915920, “The Antidepressant Paroxetine Reduces the Cardiac Sodium Current” (International Journal of Molecular Sciences, 2023).

Molecular target: T1, cardiac voltage-gated sodium channel (NaV1.5) (Homo sapiens, UniProt Q14524)
T1 construct: gene SCN5A; human NaV1.5 channels stably expressed in HEK-293 cells, without β-subunits
Assay: whole-cell patch clamp, peak NaV1.[…] current at −[…] mV, HEK-293 cells
Format: cell-based

T1 sequence (Q14524 whole entry): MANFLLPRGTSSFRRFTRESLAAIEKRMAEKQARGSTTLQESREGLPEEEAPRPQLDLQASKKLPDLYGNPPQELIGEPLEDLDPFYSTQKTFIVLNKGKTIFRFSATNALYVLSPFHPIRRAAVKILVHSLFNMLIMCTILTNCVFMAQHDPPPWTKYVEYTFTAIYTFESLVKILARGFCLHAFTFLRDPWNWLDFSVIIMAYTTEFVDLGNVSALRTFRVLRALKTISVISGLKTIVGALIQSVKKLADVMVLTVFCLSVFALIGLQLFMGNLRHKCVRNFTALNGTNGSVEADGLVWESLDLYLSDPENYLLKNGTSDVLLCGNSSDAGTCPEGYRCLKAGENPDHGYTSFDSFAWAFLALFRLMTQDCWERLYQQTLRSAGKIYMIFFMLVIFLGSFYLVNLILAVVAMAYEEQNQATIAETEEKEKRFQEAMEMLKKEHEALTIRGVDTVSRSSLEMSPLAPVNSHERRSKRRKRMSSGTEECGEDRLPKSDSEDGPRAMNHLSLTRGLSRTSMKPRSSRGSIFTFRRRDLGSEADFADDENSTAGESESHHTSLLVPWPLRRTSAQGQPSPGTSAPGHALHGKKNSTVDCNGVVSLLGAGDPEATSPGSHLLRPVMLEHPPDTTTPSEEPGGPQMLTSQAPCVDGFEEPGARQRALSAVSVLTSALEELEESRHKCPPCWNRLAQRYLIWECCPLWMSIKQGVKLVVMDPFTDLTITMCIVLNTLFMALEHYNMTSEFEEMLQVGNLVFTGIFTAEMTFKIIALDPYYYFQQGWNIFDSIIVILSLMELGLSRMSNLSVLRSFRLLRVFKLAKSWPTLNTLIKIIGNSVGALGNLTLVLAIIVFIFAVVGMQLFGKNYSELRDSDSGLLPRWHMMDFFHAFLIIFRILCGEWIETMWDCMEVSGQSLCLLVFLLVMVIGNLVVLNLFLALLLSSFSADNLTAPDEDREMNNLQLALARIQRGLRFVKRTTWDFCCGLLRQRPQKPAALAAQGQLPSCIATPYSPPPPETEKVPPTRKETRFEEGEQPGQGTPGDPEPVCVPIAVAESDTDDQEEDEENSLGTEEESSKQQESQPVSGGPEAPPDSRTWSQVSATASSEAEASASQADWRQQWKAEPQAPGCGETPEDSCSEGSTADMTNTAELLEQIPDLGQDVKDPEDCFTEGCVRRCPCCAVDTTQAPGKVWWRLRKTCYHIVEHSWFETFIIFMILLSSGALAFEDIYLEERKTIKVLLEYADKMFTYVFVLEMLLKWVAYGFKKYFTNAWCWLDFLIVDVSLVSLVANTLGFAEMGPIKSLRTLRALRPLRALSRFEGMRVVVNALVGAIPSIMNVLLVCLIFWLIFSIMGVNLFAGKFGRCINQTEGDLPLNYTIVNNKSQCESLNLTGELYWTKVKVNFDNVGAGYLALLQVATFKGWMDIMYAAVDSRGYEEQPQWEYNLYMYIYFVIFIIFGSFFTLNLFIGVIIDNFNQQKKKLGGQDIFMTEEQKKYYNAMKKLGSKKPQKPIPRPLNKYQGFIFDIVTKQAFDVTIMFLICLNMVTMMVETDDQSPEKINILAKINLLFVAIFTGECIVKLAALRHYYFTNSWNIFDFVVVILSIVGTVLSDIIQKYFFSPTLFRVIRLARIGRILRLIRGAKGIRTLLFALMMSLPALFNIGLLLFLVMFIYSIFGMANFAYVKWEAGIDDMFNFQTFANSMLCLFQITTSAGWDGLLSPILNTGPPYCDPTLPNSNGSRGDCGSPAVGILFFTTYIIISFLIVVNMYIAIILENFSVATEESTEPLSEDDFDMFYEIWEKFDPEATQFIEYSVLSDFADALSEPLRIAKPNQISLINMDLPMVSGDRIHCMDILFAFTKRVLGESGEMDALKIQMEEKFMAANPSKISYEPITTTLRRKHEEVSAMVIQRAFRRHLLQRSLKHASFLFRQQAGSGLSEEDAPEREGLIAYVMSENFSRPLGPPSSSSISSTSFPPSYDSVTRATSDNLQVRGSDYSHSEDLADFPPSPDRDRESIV

## Fc1ccc([C@@H]2CCNC[C@H]2COc2ccc3c(c2)OCO3)cc1 [paroxetine]
  IC50: 6.8 ± 1.1 µM
